# Experimental data: patent US6358885B1, “Substituted phenylheterocyclic herbicides” (Mississippi State University, priority 1992, dated 2002)
# Assays:
# [1] = test system: corn; experiment: Test C preemergence/postemergence greenhouse plant response rating 0 to 100; assay type: in vivo, Zea mays; conditions: POSTEMERGENCE; for Plant response rating, Corn: 0 to 100 scale
# In short: (§1)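 Compounds in non-phytotoxic solvent applied preemergence to sandy loam one day after planting, postemergence at the 1–4 leaf stage, or to ~2.5 cm floodwater over silt loam.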
# [2] = test system: wild oat; experiment: as above; assay type: in vivo, Avena fatua; conditions: POSTEMERGENCE; for Plant response rating, Wild oat: 0 to 100 scale
# In short: as §1
# [3] = test system: crabgrass; experiment: Test B preemergence/postemergence greenhouse plant response rating 0 to 10; assay type: in vivo, Digitaria spp.; conditions: for Plant response rating, Crabgrass: 0 to 10 scale
# In short: (§2)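 Test chemicals were sprayed onto freshly planted seed and, concurrently, onto young plants between the one and four leaf stage. After a twelve- to sixteen-day greenhouse period, each species was visually compared with untreated controls.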
# [4] = test system: giant foxtail; experiment: as above; assay type: in vivo, Setaria faberii; conditions: 0 to 10 scale
# In short: as §2
# [5] = test system: rape; experiment: as above; assay type: in vivo, Brassica napus; conditions: 0 to 10 scale
# In short: as §2
# [6] = test system: blackgrass; experiment: as above; assay type: in vivo, Alopecurus myosuroides; conditions: for Plant response rating, Blackgrass: 0 to 10 scale
# In short: as §2
# [7] = test system: wild buckwheat; experiment: Test C preemergence/postemergence greenhouse plant response rating 0 to 100; assay type: in vivo, Polygonum convolvulus; conditions: POSTEMERGENCE; for Plant response rating, Wild buckwheat: 0 to 100 scale
# In short: as §1
# [8] = test system: barnyardgrass; experiment: Test B preemergence/postemergence greenhouse plant response rating 0 to 10; assay type: in vivo, Echinochloa crus-galli; conditions: for Plant response rating, Barnyardgrass: 0 to 10 scale
# In short: as §2
# [9] = test system: morningglory; experiment: Test C preemergence/postemergence greenhouse plant response rating 0 to 100; assay type: in vivo, Ipomoea hederacea; conditions: POSTEMERGENCE; for Plant response rating, Morningglory: 0 to 100 scale
# In short: as §1
# [10] = test system: purple nutsedge; experiment: Test B preemergence/postemergence greenhouse plant response rating 0 to 10; assay type: in vivo, Cyperus rotundus; conditions: 0 to 10 scale
# In short: as §2
# [11] = test system: dallisgrass; experiment: Test G preemergence/postemergence greenhouse plant response rating 0 to 100; assay type: in vivo, Paspalum dilatatum; conditions: 0 to 100 scale
# In short: (§3)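 Scoring: visual injury at 13 to 21 days post-application, compared with untreated controls. Planting: one species per pot in greenhouse medium. Dosing: compound in non-phytotoxic solvent, within one day of sowing for preemergence or at 2–4 leaves for postemergence.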
# [12] = test system: wheat; experiment: Test C preemergence/postemergence greenhouse plant response rating 0 to 100; assay type: in vivo, Triticum aestivum; conditions: POSTEMERGENCE; for Plant response rating, Wheat: 0 to 100 scale
# In short: as §1
# [13] = test system: rice; experiment: Test C flood test plant response rating 0 to 100; assay type: in vivo, Oryza sativa; conditions: for Plant response rating Rice Japonica: flood test species listed under POSTEMERGENCE, 0 to 100 scale
# In short: as §1
# [14] = test system: purple nutsedge; experiment: Test G preemergence/postemergence greenhouse plant response rating 0 to 100; assay type: in vivo, Cyperus rotundus; conditions: Rate 125 g/ha, 0 to 100 scale
# In short: as §3
# [15] = POSTEMERGENCE section, flood test, Rate 4 g/ha
# [16] = Rate 16 g/ha, under POSTEMERGENCE head (flood test species)
compound,measurement,setting,value
COc1cc(-c2nn3c(c2Cl)CCCC3)c(F)cc1Cl [Compound 29],"Plant response rating, Corn",[1]; 62 g/ha,40
same,"Plant response rating, Corn",[1]; 250 g/ha,50
same,"Plant response rating (0 to 100), Corn",[1]; Rate 4 g/ha,20
same,"Plant response rating (0 to 100), Corn",[1]; Rate 16 g/ha,20
same,"Plant response rating, Wild oat",[2]; 62 g/ha,60
same,"Plant response rating, Wild oat",[2]; 250 g/ha,90
same,"Plant response rating (0 to 100), Wild oat",[2]; Rate 4 g/ha,20
same,"Plant response rating (0 to 100), Wild oat",[2]; Rate 16 g/ha,40
same,"Plant response rating (0 to 10 scale), Crabgrass","[3]; POSTEMERGENCE, Rate 50 g/ha",4
same,"Plant response rating, Crabgrass","[3]; POSTEMERGENCE, Rate 200 g/ha",5
same,"Plant response rating, Crabgrass","[3]; PREEMERGENCE, Rate 50 g/ha",8
same,"Plant response rating, Crabgrass","[3]; Rate 200 g/ha, PREEMERGENCE",9
same,"Plant response rating, Giant foxtail","[4]; POSTEMERGENCE, Rate 50 g/ha",3
same,"Plant response rating, Giant foxtail","[4]; PREEMERGENCE, Rate 50 g/ha",8
same,"Plant response rating, Giant foxtail","[4]; Rate 200 g/ha, POSTEMERGENCE",6
same,"Plant response rating, Giant foxtail","[4]; Rate 200 g/ha, PREEMERGENCE",9
same,"Plant response rating, Rape","[5]; POSTEMERGENCE, Rate 50 g/ha",8
same,"Plant response rating, Rape","[5]; PREEMERGENCE, Rate 50 g/ha",8
same,"Plant response rating, Rape","[5]; Rate 200 g/ha, POSTEMERGENCE",10
same,"Plant response rating, Rape","[5]; Rate 200 g/ha, PREEMERGENCE",10
same,"Plant response rating (0 to 10 scale), Blackgrass","[6]; POSTEMERGENCE, Rate 50 g/ha",3
same,"Plant response rating, Blackgrass","[6]; POSTEMERGENCE, Rate 200 g/ha",6
same,"Plant response rating, Blackgrass","[6]; PREEMERGENCE, Rate 50 g/ha",5
same,"Plant response rating, Blackgrass","[6]; Rate 200 g/ha, PREEMERGENCE",7
same,"Plant response rating, Wild buckwheat",[7]; 62 g/ha,100
same,"Plant response rating, Wild buckwheat",[7]; 250 g/ha,100
same,"Plant response rating (0 to 100), Wild buckwheat",[7]; Rate 4 g/ha,80
same,"Plant response rating (0 to 100), Wild buckwheat",[7]; Rate 16 g/ha,90
same,"Plant response rating (0 to 10 scale), Barnyardgrass","[8]; POSTEMERGENCE, Rate 50 g/ha",8
same,"Plant response rating, Barnyardgrass","[8]; POSTEMERGENCE, Rate 200 g/ha",10
same,"Plant response rating, Barnyardgrass","[8]; PREEMERGENCE, Rate 50 g/ha",4
same,"Plant response rating, Barnyardgrass","[8]; Rate 200 g/ha, PREEMERGENCE",8
same,"Plant response rating, Morningglory",[9]; 62 g/ha,80
same,"Plant response rating, Morningglory",[9]; 250 g/ha,100
same,"Plant response rating (0 to 100), Morningglory",[9]; Rate 4 g/ha,70
same,"Plant response rating (0 to 100), Morningglory",[9]; Rate 16 g/ha,80
same,"Plant response rating, Nutsedge","[10]; POSTEMERGENCE, Rate 50 g/ha",4
same,"Plant response rating, Nutsedge","[10]; PREEMERGENCE, Rate 50 g/ha",0
same,"Plant response rating, Nutsedge","[10]; Rate 200 g/ha, POSTEMERGENCE",4
same,"Plant response rating, Nutsedge","[10]; Rate 200 g/ha, PREEMERGENCE",0
same,"Plant response rating, Dallisgrass","[11]; POSTEMERGENCE, Rate 125 g/ha",0
same,"Plant response rating, Dallisgrass","[11]; POSTEMERGENCE, Rate 250 g/ha",0
same,"Plant response rating, Dallisgrass","[11]; PREEMERGENCE, Rate 125 g/ha",80
same,"Plant response rating, Dallisgrass","[11]; PREEMERGENCE, Rate 250 g/ha",90
same,"Plant response rating, Wheat",[12]; 62 g/ha,80
same,"Plant response rating, Wheat",[12]; 250 g/ha,95
same,"Plant response rating (0 to 100), Wheat",[12]; Rate 4 g/ha,20
same,"Plant response rating (0 to 100), Wheat",[12]; Rate 16 g/ha,30
same,"Plant response rating (0 to 100), Rice Japonica",[13]; [15],30
same,"Plant response rating (0 to 100), Rice Japonica",[13]; [16],65
same,Plant response rating Rice Japonica,[13]; 62 g/ha,70
same,Plant response rating Rice Japonica,[13]; 250 g/ha,90
same,"Plant response rating, Purple Nutsedge",[14]; POSTEMERGENCE,0
same,"Plant response rating, Purple Nutsedge",[14]; PREEMERGENCE,0
COC(=O)C(C)Oc1cc(-c2nn3c(c2Cl)CCCC3)c(F)cc1Cl (stereo not drawn) [Compound 28],"Plant response rating, Corn",[1]; 62 g/ha,80
same,"Plant response rating, Corn",[1]; 250 g/ha,90
same,"Plant response rating (0 to 100), Corn",[1]; Rate 4 g/ha,20
same,"Plant response rating (0 to 100), Corn",[1]; Rate 16 g/ha,25
same,"Plant response rating, Wild oat",[2]; 62 g/ha,50
same,"Plant response rating, Wild oat",[2]; 250 g/ha,70
same,"Plant response rating (0 to 100), Wild oat",[2]; Rate 4 g/ha,20
same,"Plant response rating (0 to 100), Wild oat",[2]; Rate 16 g/ha,30
same,"Plant response rating (0 to 10 scale), Crabgrass","[3]; POSTEMERGENCE, Rate 50 g/ha",5
same,"Plant response rating, Crabgrass","[3]; POSTEMERGENCE, Rate 200 g/ha",6
same,"Plant response rating, Crabgrass","[3]; PREEMERGENCE, Rate 50 g/ha",0
same,"Plant response rating, Crabgrass","[3]; Rate 200 g/ha, PREEMERGENCE",2
same,"Plant response rating, Giant foxtail","[4]; POSTEMERGENCE, Rate 50 g/ha",5
same,"Plant response rating, Giant foxtail","[4]; POSTEMERGENCE, Rate 200 g/ha",8
same,"Plant response rating, Giant foxtail","[4]; PREEMERGENCE, Rate 50 g/ha",0
same,"Plant response rating, Giant foxtail","[4]; Rate 200 g/ha, PREEMERGENCE",5
same,"Plant response rating, Rape","[5]; POSTEMERGENCE, Rate 50 g/ha",10
same,"Plant response rating, Rape","[5]; POSTEMERGENCE, Rate 200 g/ha",10
same,"Plant response rating, Rape","[5]; PREEMERGENCE, Rate 50 g/ha",9
same,"Plant response rating, Rape","[5]; Rate 200 g/ha, PREEMERGENCE",10
same,"Plant response rating (0 to 10 scale), Blackgrass","[6]; POSTEMERGENCE, Rate 50 g/ha",4
same,"Plant response rating, Blackgrass","[6]; POSTEMERGENCE, Rate 200 g/ha",6
same,"Plant response rating, Blackgrass","[6]; PREEMERGENCE, Rate 50 g/ha",2
same,"Plant response rating, Blackgrass","[6]; Rate 200 g/ha, PREEMERGENCE",4
same,"Plant response rating, Wild buckwheat",[7]; 62 g/ha,70
same,"Plant response rating, Wild buckwheat",[7]; 250 g/ha,90
same,"Plant response rating (0 to 100), Wild buckwheat",[7]; Rate 4 g/ha,30
same,"Plant response rating (0 to 100), Wild buckwheat",[7]; Rate 16 g/ha,60
same,"Plant response rating (0 to 10 scale), Barnyardgrass","[8]; POSTEMERGENCE, Rate 50 g/ha",7
same,"Plant response rating, Barnyardgrass","[8]; POSTEMERGENCE, Rate 200 g/ha",10
same,"Plant response rating, Barnyardgrass","[8]; PREEMERGENCE, Rate 50 g/ha",0
same,"Plant response rating, Barnyardgrass","[8]; Rate 200 g/ha, PREEMERGENCE",1
same,"Plant response rating, Morningglory",[9]; 62 g/ha,100
same,"Plant response rating, Morningglory",[9]; 250 g/ha,100
same,"Plant response rating (0 to 100), Morningglory",[9]; Rate 4 g/ha,50
same,"Plant response rating (0 to 100), Morningglory",[9]; Rate 16 g/ha,80
same,"Plant response rating, Nutsedge","[10]; POSTEMERGENCE, Rate 50 g/ha",2
same,"Plant response rating, Nutsedge","[10]; POSTEMERGENCE, Rate 200 g/ha",5
same,"Plant response rating, Nutsedge","[10]; PREEMERGENCE, Rate 50 g/ha",0
same,"Plant response rating, Nutsedge","[10]; Rate 200 g/ha, PREEMERGENCE",0
same,"Plant response rating, Dallisgrass","[11]; POSTEMERGENCE, Rate 125 g/ha",0
same,"Plant response rating, Dallisgrass","[11]; POSTEMERGENCE, Rate 250 g/ha",0
same,"Plant response rating, Dallisgrass","[11]; PREEMERGENCE, Rate 125 g/ha",0
same,"Plant response rating, Dallisgrass","[11]; PREEMERGENCE, Rate 250 g/ha",0
same,"Plant response rating, Wheat",[12]; 62 g/ha,70
same,"Plant response rating, Wheat",[12]; 250 g/ha,100
same,"Plant response rating (0 to 100), Wheat",[12]; Rate 4 g/ha,40
same,"Plant response rating (0 to 100), Wheat",[12]; Rate 16 g/ha,60
same,"Plant response rating (0 to 100), Rice Japonica",[13]; [15],0
same,"Plant response rating (0 to 100), Rice Japonica",[13]; [16],45
same,Plant response rating Rice Japonica,[13]; 62 g/ha,65
same,Plant response rating Rice Japonica,[13]; 250 g/ha,85
same,"Plant response rating, Purple Nutsedge",[14]; POSTEMERGENCE,0
same,"Plant response rating, Purple Nutsedge",[14]; PREEMERGENCE,0
